In patent US6559158B1, “Use of methylnaltrexone and related compounds to treat chronic opioid use side affects” (UR Labs, Inc., priority 1997, dated 2003):
Read-outs that look alike come from different tables or passages of the source.

How the values were obtained:
[1] = humans; cited from earlier work
normal volunteers = conditions: eight normal volunteers, cited from earlier work
[2] = system: chronic methadone subjects; assay: Example 3: oral methylnaltrexone, opioid withdrawal and adverse effects; conditions: oral 0.3-3.0 mg/kg
Experimental: Since oral medication is a safer and more convenient way to deliver drugs than is intravenous administration, the efficacy of oral MNTX in relieving constipation in methadone maintained patients was evaluated. Twelve constipated adults (≦2 stool/week) were enrolled. Their daily methadone dose was 73.3±16.2 mg (41-100 mg), mean±SD (range). On day 1 at 9AM, subjects ingested 10 g lactulose (Solvay Pharmaceuticals) to assess oral-cecal transit time as described above, and a placebo capsule. On day 2 at 9AM, subjects again received lactulose, and a capsule containing methylnaltrexone (Mallinckrodt). Ascending oral methylnaltrexone doses (0.3, 1.0, and 3,0 mg/kg) were given to 3 groups of 4 subjects per group. Drug administrations were single-blinded to the subject. Laxation response and potential opioid withdrawal were recorded and blood samples were collected.

[3] = system: morphine-induced changes in oral-cecal transit time; assay: Example 4: morphine-induced delay of oral-cecal transit time in subjects given opioids non-chronically; assay type: in vivo, human; conditions: 0.45 mg/kg methylnaltrexone plus 0.05 mg/kg morphine
Experimental: Sessions were separated by at least 1 week. Each session lasted approximately 7 hours, and the subjects received one of three injections: (1) placebo plus placebo, (2) placebo plus 0.05 mg/kg morphine, or (3) 0.45 mg/kg methylnaltrexone plus 0.05 mg/kg morphine. Injection I was given at the first session, and the subjects were blinded to the medication. Injections 2 and 3 were given in a random order, and the subjects and observers were blinded to the medication. Injection assignments were prepared by random selection on a computer and were sealed in envelopes.
After completion of the above three injections, we asked six of the subjects, beginning with those who had completed the study last, to return for a fourth injection (0.45 mg/kg methylnaltrexone plus 0.1 mg/kg morphine). This was done to evaluate the effects of methylnaltrexone with a higher does of morphine.
Results of the hydrogen breath test after different injections were analyzed with the use of the Wilcoxon matched-pairs signed-rank test, with p<0.05 considered to be statistically significant.

[4] = system: chronic methadone subjects with methadone-induced constipation; assay: Example 1: intravenous methylnaltrexone, laxation response and stool frequency in methadone maintenance subjects; assay type: in vivo, human; conditions: for Stool frequency Methylnaltrexone (per day): during iv methylnaltrexone treatment
Experimental: Methylnaltrexone dose of 0.45 mg/kg was chosen to start this trial because this dose was previously given in normal volunteers and prevented opioid-induced delay of the oral-cecal transit time without any side effects (Yuan et al., Clin. Pharmacol Ther., 59:469-475 (1996)). Drug administration was performed single blind to the subjects in this pilot study. Thus, methylnaltrexone dose could be adjusted based on subjects' clinical response during the study.
All four subjects received placebo (normal saline) on Day 1. Thereafter, subjects received intravenous methylnaltrexone until the end of the study.
On Day 2 at 09:00 hours (h), Subjects 1 and 2 were given 0.45 mg/kg intravenous methylnaltrexone over 1 min. Subject 2 experienced severe abdominal cramps after receiving the compound and was withdrawn from the study. […] Beginning on Day 4, the study was resumed for Subject 1 using 0.45 mg/kg of methylnaltrexone, diluted with 50 ml normal saline and administered over 30 min. Infusion could be stopped at any time for complaints of abdominal pain.
For Subjects 3 and 4, the study was shortened from 8 to 5 days, methylnaltrexone dosage was decreased, and a new, three-step dosing procedure was established. Methylnaltrexone 0.05 mg/kg, mixed in 30 ml normal saline (first syringe), was infused intravenously over 10 min. The subject was then observed 10 min for drug response. If there was no response, then methylnaltrexone 0.1 mg/kg (second syringe), mixed in 30 ml normal saline, was infused over 15 min. Subject was observed 15 min for drug response. If there was no response, then methylnaltrexone 0.3 mg/kg (third syringe), mixed in 30 ml normal saline, was infused over 15 min.
After each test drug administration, seven blood samples (5 ml each) were obtained at time 0, 5, 30 min, and 1, 2, 4, 8 h, and three urine samples were collected at time 0, 2, and 4 h. Plasma and urine methylnaltrexone levels were determined by an HPLC technique with a detection limit of 2 ng/ml (Kim et al., 1989; Yuan et al., Clin. Pharmacol Ther., 59:469-475 (1996); both herein incorporated by reference). […] Subjects' bowel movements were witnessed and recorded by a research nurse.

[5] = system: chronic methadone subjects; assay: Example 1: oral-cecal transit time (lactulose hydrogen breath test); assay type: in vivo, human; conditions: 150 min after placebo
Experimental: (§1) Vital signs were obtained at 0, 5, 10, 30, 60, 90 and 120 min after each test drug administration. For oral-cecal transit time measurement, 10 g lactulose (Solvay Pharmaceuticals, Marietta, Ga.) was administered orally at 09:00 h of Day 1, Day 5 and Day 8 for Subject 1; of Day 1 for Subject 2, and of Day 1, Day 3 and Day 5 for Subjects 3 and 4. Illicit drug use was monitored by random urine drug screens.
The oral-cecal transit time was assessed by the pulmonary hydrogen (H2) measurement technique, which measures pulmonary H2 that is produced when unabsorbed lactulose is fermented by colonic bacteria and excreted in the breath. This H2 production is reflected by a concomitant increase in breath H2 excretion. […] Dis. Sci., 32:829-832 (1987)). Hydrogen breath tests were conducted every 15 min until oral-cecal transit time was determined.

[6] = system: chronic methadone subjects; assay: Example 1: side effects, abdominal cramping and central opioid withdrawal; assay type: in vivo, human
Experimental: as §1
To evaluate possible opioid withdrawal with methylnaltrexone, subjects were asked to rate on a 5-point scale from 0 (not at all) to 4 (extremely) an […] checklist Withdrawal Scale (Fraser et al., J Pharmacol Exp. Ther., 133:371-387 (1961); Jasinski, Drug Addiction J., 197-258 (1977); both herein incorporated by reference). Items to be rated were: muscle cramps, flushing, painful joints, yawning, restless, watery eyes, runny nose, chills or gooseflesh, sick to stomach, sneezing, abdominal cramps, irritable, backache, tense and jittery, sweating, depressed/sad, sleepy, shaky (hands), hot or cold flashes, and bothered by noises. The ratings for individual items were summed for a total score for each scale. The total scores were compared before and after methylnaltrexone administration to see if there was a significant difference.

[7] = Subjects 3 and 4, 0.05-0.15 mg/kg iv twice daily, 4 days
[8] = iv methylnaltrexone, #1 0.45 mg/kg bid, #2 0.45 mg/kg, #3 and #4 0.05-0.15 mg/kg bid, iv methylnaltrexone 0.45 mg/kg
[9] = iv methylnaltrexone, #1 0.45 mg/kg bid, #2 0.45 mg/kg, #3 and #4 0.05-0.15 mg/kg bid, iv methylnaltrexone 0.05-0.15, bid mg/kg
[10] = iv methylnaltrexone, #1 0.45 mg/kg bid, #2 0.45 mg/kg, #3 and #4 0.05-0.15 mg/kg bid, iv methylnaltrexone 0.05-015, bid mg/kg
[11] = iv methylnaltrexone, #1 0.45 mg/kg bid, #2 0.45 mg/kg, #3 and #4 0.05-0.15 mg/kg bid, iv methylnaltrexone 0.45, bid mg/kg

SMILES: C[N@+]1(CC2CC2)CC[C@]23c4c5ccc(O)c4O[C@H]2C(=O)CC[C@@]3(O)[C@H]1C5 [methylnaltrexone, N-methylnaltrexone bromide]
- blood-brain barrier passage [1]: does not cross the blood-brain barrier
- de-methylation [1]: do not appreciably de-methylate
- side effects (normal volunteers; doses of 0.64 to 1.25 mg/kg): transient orthostatic hypotension
- side effects (normal volunteers; doses up to 0.32 mg/kg): did not cause side effects
- opioid withdrawal ([2]; any subjects): no opioid withdrawal
- abdominal cramping ([2]; most subjects): very mild abdominal cramping
- adverse effects [2]: no adverse effects were reported
- oral-cecal transit time ([3]; 12 subjects, mean±SD, not significant vs baseline 104.6±31.1): 106.3 ± 39.8 min
- prevention of morphine-induced changes in oral-cecal transit time ([3]; p<0.01 vs morphine alone): 97%
- Laxation response ([4]; Subjects 1 and 2, 0.45 mg/kg iv): immediate positive Taxation
- Laxation response ([4]; Subjects 3 and 4, 0.05-0.15 mg/kg iv twice daily for 4 consecutive days): immediate laxation response
- Stool frequency Methylnaltrexone (per day) ([4]; #1 0.45 mg/kg bid, #2 0.45 mg/kg, #3 and #4 0.05-0.15 mg/kg bid, iv methylnaltrexone 0.45 mg/kg): 1 per day
- Stool frequency Methylnaltrexone (per day) ([4]; #1 0.45 mg/kg bid, #2 0.45 mg/kg, #3 and #4 0.05-0.15 mg/kg bid, iv methylnaltrexone 0.05-0.15, bid mg/kg): 2 per day
- Stool frequency Methylnaltrexone (per day) ([4]; #1 0.45 mg/kg bid, #2 0.45 mg/kg, #3 and #4 0.05-0.15 mg/kg bid, iv methylnaltrexone 0.05-015, bid mg/kg): 1.3 per day
- Stool frequency Methylnaltrexone (per day) ([4]; #1 0.45 mg/kg bid, #2 0.45 mg/kg, #3 and #4 0.05-0.15 mg/kg bid, iv methylnaltrexone 0.45, bid mg/kg): 1.5 per day
- stool frequency during the treatment period ([4]; four subjects, iv methylnaltrexone, 1-2 times per week before the study): approximately 1.5 stool per day
- Laxation response ([4]; iv methylnaltrexone, #1 0.45 mg/kg bid, #2 0.45 mg/kg, #3 and #4 0.05-0.15 mg/kg bid): Immediate
- oral-cecal transit time after methylnaltrexone, at the end of the study ([5]; Subject 1, 0.45 mg/kg iv bid): 90 min
- oral-cecal transit time after methylnaltrexone, at the end of the study ([5]; Subject 3, 0.05-0.15 mg/kg iv bid): 60 min
- oral-cecal transit time after methylnaltrexone, at the end of the study ([5]; Subject 4, 0.05-0.15 mg/kg iv bid): 60 min
- side effects ([6]; Subject 1, 0.45 mg/kg iv, 7 days of administration): did not experience any significant side effects
- abdominal cramping ([6]; Subject 1, 0.45 mg/kg iv, after each injection): mild abdominal cramping
- signs of systemic withdrawal (lacrimation, diaphoresis, mydriasis, hallucinations) ([6]; Subject 2, single dose 0.45 mg/kg iv): no signs of systemic withdrawal
- abdominal cramping ([6]; Subject 2, single dose 0.45 mg/kg iv over 1 min): severe abdominal cramping
- abdominal cramping [6, 7]: mild abdominal cramping
- side effects [6, 7]: No significant side effects were observed
- Central opioid withdrawal [6, 8]: No
- abdominal cramping [6, 8]: Severe
- Central opioid withdrawal [6, 9]: No
- abdominal cramping [6, 9]: Mild
- Central opioid withdrawal [6, 10]: No
- abdominal cramping [6, 10]: Mild
- Central opioid withdrawal [6, 11]: No
- abdominal cramping [6, 11]: Mild
